Patent US20030198614A1, “Hair growers” (priority 2000, published 2003)

Columns and labels:
[1] = tested on: telogen hair roots of male subjects; assay: Trichogram test; type: in vivo, human; details: 50 nM in 70% ethanol, 2 ml twice a day on scalp for 6 months, 10 male subjects
Description: As test materials, Compound 1 and Compound 2 were employed. Each test material was dissolved in 70% ethanol similarly to Experiment 1 to obtain a sample (test material concentration: 50 nM).
The hair roots of hairs pulled out before and after the use of each sample were examined by a microscope to determine the telogen hair root count on the basis of the hair root morphology, and the increase or decrease in the rate was employed as an index for evaluating the hair growth promoting effect.
Specifically, each sample was applied onto the scalp of each of 10 male subjects twice a day in a 2 ml aliquot each time continuously for 6 months. 100 hairs per subject were pulled out immediately before the application and immediately after completion of 6-month application to count the telogen hair roots. The rate (%) of the number of the subjects whose telogen hair root after the application was decreased by 20% or more, changed by ±20% or increased by 20% or more with respect to that before the application was calculated.

[2] = Hair regrowth inducing effect test by cell cluster-accompanied culture method; type: cell-based; details: Homo sapiens, Human dermal papilla cell, 48 h, 2 days, Alamer Blue fluorescence, relative to negative control, read-out: Relative respiration level (%)
Description: The hair regrowth inducing effect was evaluated using, as an index, an increase in respiration level of a cell cluster formed under the coexistence of a normal human outer root sheath cell and a normal human dermal papilla cell.
Normal human dermal papilla cell (DP): A DP obtained by a primary culture from a head hair was subcultured three times in a 10% FBS-supplemented DMEM medium in a 75 cm^2 incubation flask coated with Type I collagen, and then stored while being frozen in a liquid nitrogen using a cell cryopreservation solution (Cellbanker II: DIA-IATRON).
Normal human outer root sheath cell (ORS): An ORS obtained by a primary culture from a head hair was subcultured three times in a SFM medium in a 75 cm^2 incubation flask coated with Type I collagen, and then stored while being frozen in a liquid nitrogen using Cellbanker II.
The DP and ORS cells stored as frozen were thawed, washed with an ice-cooled SFM medium, dispersed in the same medium and subjected to an accurate cell density measurement using a hemocytometer. Each cell density was adjusted at 5×10^4 cells/ml accurately, and the cell dispersions in equal volumes were combined under cooling with ice. 80 μl aliquots of the combined cell suspending SFM medium were inoculated into individual wells of a 96-well microplate (Sumilon celltight, spheroid 96U plate), and incubated for 2 days. The cell count in a single well upon inoculation was 2,000 cells for each of DP and ORS, thus 4,000 cells in total.
Each 80 μl of a test material-supplemented William's E(+) medium (William's E medium supplemented with 10 μg/ml transferrin, 10 ng/ml hydrocortisone, 10 μg/ml insulin and 10 ng/ml sodium selenite) was added to each well and incubated further for 2 days.
The test material-supplemented William's E(+) medium added to each well was prepared by dissolving the test material in ethanol at a concentration of 10 mM or 100 mM and adding to William's E(+) medium at 0.2% each. Accordingly, the final concentration of the test material in each well was 10 μM or 100 μM, and each final concentration of ethanol was 0.1%.
As a negative control, 80 μl of William's E(+) medium containing 0.2% ethanol was added (final concentration of ethanol was 0.1%).
Alamer Blue, SFM medium and William's E(+) medium were mixed in 2:1:1 ratio, warmed at 37° C. and then 40 μl aliquots were added to individual wells and allowed to react for 6 hours at 37° C. After completion of the reaction, 100 μl aliquots were taken from individual wells, and transferred to a white 96-well plate for fluorescence measurement (Opaque Plate).
A fluorometer (Labsystems Fluoroskan II) was used at the excitation wavelength of 544 nm and the fluorescent wavelength of 590 nm to measure the fluorescence intensity of each well, from which the fluorescent intensity of a cell-free reaction mixture (i.e., the reaction mixture treated similarly using a cell-free SFM medium) was subtracted to obtain a respiration level under each condition. From thus obtained respiration level, a relative respiration level(%) was calculated according to the following equation.
Relative respiration level(%)={Respiration level (test material)}/{Respiration level (negative control)}×100

[3] = tested on: cultured human trichoepithelial cell; assay: Trichoepithelial cell growth promoting effect test; type: cell-based; details: 1.0×10^-6 mol/L, 2 days, Alamer Blue; negative control = 0, positive control (insulin + hydrocortisone) = 1
Description: According to the method described in JP-A-2000-63242, a cultured trichoepithelial cell of a human scalp was used to measure a trichoepithelial cell growth promoting effect.
From a human scalp obtained as a by-product of a surgical operation, a hair follicle at a anagen stage in a hair cycle was isolated mechanically under the observation by a stereoscopic microscope. This hair follicle at a anagen stage was treated in a Dulbecco's modified MEM (DMEM) supplemented with 1000 U/ml dispase and 0.2% collagenase for 30 minutes at 37° C. Adipose tissues, connective tissue root sheath and dermal papilla were removed therefrom using the tip of a syringe needle and the hair follicle was treated in a phosphate buffer containing 0.05% EDTA for 5 minutes at 37° C.
Subsequently, the hair follicle was placed on a culture dish coated with Type I collagen, and incubated in a KGM medium (serum-free keratinocyte growth medium). After incubation for 4 to 5 days, the culture medium was exchanged upon ensuring the adhesion of the hair follicle on the bottom face of the culture dish and the growth of the trichoepithelial cell, and thereafter the culture medium was exchanged every 2 days.
After the cell thus proliferated was treated in a phosphate buffer containing 0.05% trypsin and 0.02% EDTA for 5 minutes at 37° C., the reaction was quenched using an equal volume of 0.1% trypsin inhibitor and the cell was recovered by centrifugation (800×g, 5 minutes).
Subsequently, the cell was suspended in the serum-free culture medium described above, and inoculated at the density of 5000 cells/cm^2 onto a culture dish coated with Type I collagen. The culture medium was exchanged every 2 days until the cell became subconfluent. After treating the cell again in the phosphate buffer containing 0.05% trypsin and 0.02% EDTA for 5 minutes at 37° C., the reaction was quenched using an equal volume of 0.1% trypsin inhibitor and the cell was recovered by centrifugation (800×g, 5 minutes). The human trichoepithelial cell thus obtained was adjusted at the concentration of 100,000 cells/ml with a cell cryopreservation solution (Cellbanker: DIA-IATRON) added thereto, and dispensed into each freezing tube as a 100,000 cells (1 ml), which was then stored as being frozen. The cell counts described above were calculated using a hemocytometer.
After inoculating the trichoepithelial cell obtained in the step described above into a culture flask, the cell was treated with a phosphate buffer containing 0.25% trypsin and 0.02% EDTA. The reaction was quenched with 0.1% trypsin inhibitor, and then the mixture was centrifuged at 1,500 rpm for 5 minutes. The supernatant was removed, and the precipitated cell pellet was combined with a KGM medium to prepare a cell suspension.
The cell suspension in the KGM medium was inoculated to a Type I collager-coated 96-well microplate (Falcon) at 3,000 cells (0.2 ml)/well and allowed to stand for about 20 minutes at room temperature until the cell went down onto the bottom. Then, the cell was cultured for 1 day in an incubator in the presence of 5% CO2 at 37° C., whereby obtaining an intended cultured human trichoepithelial cell.
A test material and DMSO were added to a KGM medium at the final concentrations of 1.0×10^−6 mol/L and 0.1%, respectively.
Negative control: DMSO was added to a KGM medium at the final concentration of 0.1%.
Positive control: Insulin and hydrocortisone were dissolved in DMSO, which was then added to a KGM medium. The final concentrations of insulin, hydrocortisone and DMSO were 5 μg/ml, 0.5 μg/ml and 0.1%, respectively.
The KMG medium in the 96-well microplate employed for preparing the cultured human trichoepithelial cell in Step A described above was exchanged with a test material-supplemented medium or a control medium (200 μl/well), and the incubation was continued for 2 days in the presence of 5% CO2 at 37° C. […]

[4] = tested on: C3H/He mice, whose hair cycle was at the telogen stage; assay: Hair regrowth effect test; type: in vivo; details: 0.1 ml once a day on shaved back, after 24 days, average of 6 mice
Description: The Compounds 1 to 5 described above were used as test materials. Each test material was dissolved in 70% ethanol aqueous solution and the solution was subjected to the application as a sample (test material concentration: 50 nM and 100 nM). 70% Ethanol was also used as a control sample.
The hair regrowth effect test was performed using C3H/He mice, whose hair cycle was at the telogen stage according to the method of Ogawa et. al. (Normal and Abnormal Epidermal Differentiation, Edited by M. Seiji and I. A. Bernstein, Pages 159-170, 1982, Todai Shuppan).
Namely, 6 mice were used in a group and their hair of the regions of back was shaved by hair clippers. 0.1 ml of sample was applied on the shaved regions once a day. After 24 days, the hair regrowth area was measured and the hair regrowth area rate was calculated based on the hair regrowth area with respect to the shaved area. The results are shown in Table 1 (expressed by average values).

[5] = tested on: human hair follicle in the anagen stage; assay: Investigation of hair shaft elongation (organ culture of human hair follicle); type: cell-based; details: 1.0×10^-5 mol/L, 5-day incubation, 9 hair follicles per group
Description: A hair follicle in the anagen stage was isolated from a human scalp under a stereoscopic microscope observation, washed with “a medium prepared by adding penicillin, streptomycin and fungizone to Williams E medium (Gibco)” (hereinafter referred to as a (−) medium) and then examined for its length.
A medium obtained by supplementing the (−) medium further with 10 ng/ml hydrocortisone, 10 μg/ml insulin, 10 ng/ml sodium selenite and 10 μg/ml transferring (hereinafter ter referred to as a (+) medium) was dispensed in an aliquot of 1 ml per well into a 24-well microplate. The hair follicle described above was precipitated therein and incubated overnight at 37° C. in the presence of 5% CO2 (preincubation).
The elongation of the hair shaft in a hair follicle was determined by inspecting the microplate described above visually using an inverted microscope with a micrometer attached thereto.
A DMSO solution of a test material was added to a (−) medium for preparation. The final concentrations of the test material and DMSO were 1.0×10^−5 mol/L and 0.1%, respectively.
Only DMSO was added to a (−) medium at the final concentration of 0.1% for preparation.
The culture medium of the hair follicle groups described above was replaced each with the test materialcontaining medium or negative control medium, and the incubation was continued further for 5 days at 37° C. in the presence of 5% CO2. The length of each hair after 5-day incubation was measured, and the means were compared with each other.

Structure (SMILES) | Rate of telogen hair root: 20% or more decrease (rate of subjects) [1] [%] | Rate of telogen hair root: 20% or more increse (rate of subjects) [1] [%] | Rate of telogen hair root: ±20% (rate of subjects) [1] [%] | activity at 10 µM [2] [%] | activity at 100 µM [2] [%] | Cell growth promoting index [3] | Hair regrowth area rate ([4]; 50 nM in 70% ethanol) [%] | Hair regrowth area rate ([4]; 100 nM in 70% ethanol) [%] | Mean of hair shaft elongation [5] [mm]
CCCCCCCCCCCCCCCCOC(CO)COC (stereo not shown) [Compound 1, 2-Hexadecyloxy-3-methoxy-1-propanol] | 70 | 0 | 30 | 139 | 157 | 1.3 | 70 | 93 | 1.7
CCCCCCCCCCCCCCCCOCC(O)COC (stereo not shown) [Compound 2, 1-Hexadecyloxy-3-methoxy-2-propanol] | 60 | 10 | 30 | 108 | 122 | 1.5 | 65 | 88 | 1.5
CCCCCCCCCCCCCCCCOCCCO [Compound 3, 3-Hexadecyloxy-1-propanol] | – | – | – | 106 | 108 | 1.4 | 15 | 74 | 1.6
CCCCCCCCCCCCCCCCOCC(COC)OC (stereo not shown) [Compound 4, 1-(2,3-Dimethoxypropoxy)hexadecane] | – | – | – | 127 | 134 | 1.4 | 68 | 78 | 1.9
CCCCCCCCCCCCCCCCCCC(CO)OC (stereo not shown) [Compound 5, 2-Methoxy-1-eicosanol] | – | – | – | 124 | 130 | 1.2 | 70 | 76 | 1.4
CCCCCCCCCCCCCCCCCC(=O)OCC(CO)OC (stereo not shown) [Compound 6, 3-Hydroxy-2-methoxypropyl stearate] | – | – | – | 101 | 102 | 1.3 | – | – | 1.7
CCCCCCCCCCCCCCCCOC(CO)CO [Compound 7, 2-Hexadecyloxy-1,3-propanediol] | – | – | – | 122 | 129 | 1.5 | – | – | 1.2
CCCCCCCCCCCCCCCCCCOCC(C)(C)CO [Compound 8, 2,2-Dimethyl-3-octadecyloxy-1-propanol] | – | – | – | 106 | 112 | 1.2 | – | – | 1.7
CCCCCCCCCCCCCCCCCCC(O)CO (stereo not shown) [Compound 9, 1,2-eicosanediol] | – | – | – | 130 | 132 | 1.2 | – | – | 1.5
